We go through 21 molecules from patent US20250136607A1 (REGOR PHARMACEUTICALS, INC., priority 2021, published 2025).

Like-named read-outs stand apart in the source and are kept apart here.

This assay has as its target Protein arginine deiminase 4 (PAD4) (Homo sapiens, UniProt Q9UM07). In words: PAD4 ammonia release assay. The assay is classed as biochemical. In short, it runs like this: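 PAD4 (20 nM, 2× working solution) was preincubated with compound for 15 min at RT in 100 mM HEPES pH 8.0, 2 mM CaCl2, 50 mM NaCl, 0.1 mM TCEP, BSA at 1.25% DMSO. BAEE (600 μM, 2× mix) reacted 60 min, then OPA/DTT/EDTA detection for 120 min. IC50 came from a 4-parameter fit, normalized to 50 μM reference (100%) and DMSO (0%).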

The mark [1] stands for this setting: PAD4 ammonia release assay, BAEE substrate, 60 min at RT, read-out: Average IC50 Abs.

The IC50 is the concentration that gives 50% inhibition.

Sequence of Protein arginine deiminase 4 (PAD4) (Q9UM07 whole entry): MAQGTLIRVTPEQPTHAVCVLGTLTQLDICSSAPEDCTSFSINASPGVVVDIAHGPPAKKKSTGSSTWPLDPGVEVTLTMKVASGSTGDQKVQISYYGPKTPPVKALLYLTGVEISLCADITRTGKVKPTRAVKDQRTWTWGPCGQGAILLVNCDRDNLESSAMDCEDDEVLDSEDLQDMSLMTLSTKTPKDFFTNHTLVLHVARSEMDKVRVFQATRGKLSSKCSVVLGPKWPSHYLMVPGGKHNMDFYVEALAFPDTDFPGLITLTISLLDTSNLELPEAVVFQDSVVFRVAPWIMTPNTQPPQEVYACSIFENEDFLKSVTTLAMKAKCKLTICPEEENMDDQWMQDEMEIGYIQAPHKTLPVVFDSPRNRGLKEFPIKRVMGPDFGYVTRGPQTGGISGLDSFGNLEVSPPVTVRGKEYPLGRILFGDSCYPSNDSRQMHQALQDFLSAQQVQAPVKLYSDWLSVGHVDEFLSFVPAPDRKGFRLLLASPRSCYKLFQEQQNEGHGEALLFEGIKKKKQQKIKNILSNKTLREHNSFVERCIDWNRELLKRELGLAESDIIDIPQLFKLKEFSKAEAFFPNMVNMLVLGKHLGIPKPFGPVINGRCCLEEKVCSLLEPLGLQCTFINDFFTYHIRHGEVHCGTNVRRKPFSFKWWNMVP

With `Cn1c(-c2cc3ccc4[nH]ccc4c3n2CC2CC2)nc2cc(C(=O)N3C[C@H]4CC[C@@H]3[C@@H]4N)cc(F)c21` [Example 144, ((1R,4R,7R)-7-amino-2-azabicyclo[2.2.1]heptan-2-yl)(2-(1-(cyclopropylmethyl)-1,6-dihydropyrrolo[2,3-e]indol-2-yl)-7-fluoro-1-methyl-1H-benzo[d]imidazol-5-yl)methanone], the IC50 under setting [1] fell in the range of 100 to 500 nM. The same measure, in the same setting: the same measure for `Cn1c(-c2cc3ccc4c(Cl)c[nH]c4c3n2CC2CC2)nc2cc(C(=O)N3C[C@H]4CC[C@@H]3[C@@H]4N)cc(F)c21` [Example 149, ((1R,4R,7R)-7-amino-2-azabicyclo[2.2.1]heptan-2-yl)(2-(6-chloro-1-(cyclopropylmethyl)-1,8-dihydropyrrolo[3,2-g]indol-2-yl)-7-fluoro-1-methyl-1H-benzo[d]imidazol-5-yl)methanone]: 500 to 5000 nM. In the case of `CC[C@H]1CN(CCCO)c2cccc3cc(-c4nc5cc(C(=O)N6C[C@H]7CC[C@@H]6[C@@H]7N)cc(F)c5n4CC)n1c23` [Example 98, ((1R,4R,7R)-7-amino-2-azabicyclo[2.2.1]heptan-2-yl)(1-ethyl-2-((S)-3-ethyl-1-(3-hydroxypropyl)-2,3-dihydro-1H-pyrrolo[1,2,3-de]quinoxalin-5-yl)-7-fluoro-1H-benzo[d]imidazol-5-yl)methanone], the IC50 under setting [1] was not above 100 nM. Besides, the “relative potency of separated isomers in the PAD4 biochemical assay” value (SFC-separated stereoisomer pairs) is listed as “more potent than Example 97”. For the molecule `Cn1c(-c2cc3ccc4c(c3n2CC2CC2)NCC4(C)C)nc2cc(C(=O)N3C[C@H]4CC[C@@H]3[C@@H]4N)cc(F)c21` [Example 142, ((1R,4R,7R)-7-amino-2-azabicyclo[2.2.1]heptan-2-yl)(2-(1-(cyclopropylmethyl)-6,6-dimethyl-1,6,7,8-tetrahydropyrrolo[3,2-g]indol-2-yl)-7-fluoro-1-methyl-1H-benzo[d]imidazol-5-yl)methanone], the 50% inhibitory concentration (IC50) under setting [1] lay within 500 to 5000 nM. The same measure, in the same setting: the same measure for `Cn1c(-c2cc3ccc4c(c3n2CC2CC2)CCN(C2CC2)C4)nc2cc(C(=O)N3C[C@H]4CC[C@@H]3[C@@H]4N)cc(F)c21` [Example 155, ((1R,4R,7R)-7-amino-2-azabicyclo[2.2.1]heptan-2-yl)(2-(7-cyclopropyl-1-(cyclopropylmethyl)-6,7,8,9-tetrahydro-1H-pyrrolo[2,3-f]isoquinolin-2-yl)-7-fluoro-1-methyl-1H-benzo[d]imidazol-5-yl)methanone]: 100 to 500 nM; for `COc1cc(C(=O)N2CCC3(CC2)CC3N)cc2nc(-c3cc4cccc5c4n3CCN5CCCO)n(CC3CC3)c12` (centres unmarked) [Example 56, (1-amino-6-azaspiro[2.5]octan-6-yl)(1-(cyclopropylmethyl)-2-(1-(3-hydroxypropyl)-2,3-dihydro-1H-pyrrolo[1,2,3-de]quinoxalin-5-yl)-7-methoxy-1H-benzo[d]imidazol-5-yl)methanone]: more than 5000 nM; for `COc1cc(C(=O)N2CC[C@H](F)[C@H](N)C2)cc2nc(-c3cc4cccc5c4n3CCN5CCCO)n(CC3CC3)c12` [Example 58, ((3R,4S)-3-amino-4-fluoropiperidin-1-yl)(1-(cyclopropylmethyl)-2-(1-(3-hydroxypropyl)-2,3-dihydro-1H-pyrrolo[1,2,3-de]quinoxalin-5-yl)-7-methoxy-1H-benzo[d]imidazol-5-yl)methanone]: 500 to 5000 nM. As for `CCC1CNc2cccc3cc(-c4nc5cc(C(=O)N6C[C@H]7CC[C@@H]6[C@@H]7N)cc(OC)c5n4C)n1c23` (stereo partly drawn) [Example 102, ((1R,4R,7R)-7-amino-2-azabicyclo[2.2.1]heptan-2-yl)(2-(3-ethyl-2,3-dihydro-1H-pyrrolo[1,2,3-de]quinoxalin-5-yl)-7-methoxy-1-methyl-1H-benzo[d]imidazol-5-yl)methanone], the half-inhibitory concentration (IC50) reads like this: (PAD4 activity comparison, read-out: PAD4 Ammonia assay IC50) 207 nM; under setting [1], 100 to 500 nM.

On to `COc1cc(C(=O)N2C[C@H](N)C[C@@H](F)C2)cc2nc(-c3cc4cccc5c4n3CCN5Cc3cnn(C)c3)n(C)c12` [Example 26, ((3R,5R)-3-amino-5-fluoropiperidin-1-yl)(7-methoxy-1-methyl-2-(1-((1-methyl-1H-pyrazol-4-yl)methyl)-2,3-dihydro-1H-pyrrolo[1,2,3-de]quinoxalin-5-yl)-1H-benzo[d]imidazol-5-yl)methanone], for which the half-inhibitory concentration (IC50) under setting [1] was in the range of 500 to 5000 nM. Same read-out and setting: to `CCC1C(=O)Nc2c(Cl)ccc3cc(-c4nc5cc(C(=O)N6C[C@H]7CC[C@@H]6[C@@H]7N)cc(F)c5n4C)n1c23` (stereo partly drawn) [Example 124, 5-(5-((1R,4R,7R)-7-amino-2-azabicyclo[2.2.1]heptane-2-carbonyl)-7-fluoro-1-methyl-1H-benzo[d]imidazol-2-yl)-9-chloro-3-ethyl-1H-pyrrolo[1,2,3-de]quinoxalin-2(3H)-one] belongs 500 to 5000 nM; to `Cn1c(-c2cc3ccc(C(F)(F)F)c4c3n2C(C2CC2)CN4)nc2cc(C(=O)N3C[C@H]4CC[C@@H]3[C@@H]4N)cc(F)c21` (stereo partly drawn) [Example 121, [(1R,4R,7R)-7-amino-2-azabicyclo[2.2.1]heptan-2-yl]-[2-[11-cyclopropyl-7-(trifluoromethyl)-1,9-diazatricyclo[6.3.1.0^4,12]dodeca-2,4,6,8(12)-tetraen-2-yl]-7-fluoro-1-methyl-benzimidazol-5-yl]methanone], not above 100 nM; to `COc1cc(C(=O)N2C[C@H](N)C3(CC3)C2)cc2nc(-c3cc4cccc5c4n3CCN5CCCO)n(CC3CC3)c12` [Example 60, (R)-(7-amino-5-azaspiro[2.4]heptan-5-yl)(1-(cyclopropylmethyl)-2-(1-(3-hydroxypropyl)-2,3-dihydro-1H-pyrrolo[1,2,3-de]quinoxalin-5-yl)-7-methoxy-1H-benzo[d]imidazol-5-yl)methanone], more than 5000 nM.

On to `Cn1c(-c2cc3cc(C#N)cc4c3n2[C@H](C2CC2)CN4)nc2cc(C(=O)N3C[C@H]4CC[C@@H]3[C@@H]4N)cc(F)c21` [Example 117, (R)-5-(5-((1R,4R,7R)-7-amino-2-azabicyclo[2.2.1]heptane-2-carbonyl)-7-fluoro-1-methyl-1H-benzo[d]imidazol-2-yl)-3-cyclopropyl-2,3-dihydro-1H-pyrrolo[1,2,3-de]quinoxaline-8-carbonitrile], for which, under setting [1], the IC50 is more than 5000 nM.

Take `CN1CCc2c(ccc3cc(-c4nc5cc(C(=O)N6C[C@H]7CC[C@@H]6[C@@H]7N)cc(F)c5n4C)n(CC4CC4)c23)C1` [Example 152, ((1R,4R,7R)-7-amino-2-azabicyclo[2.2.1]heptan-2-yl)(2-(1-(cyclopropylmethyl)-7-methyl-6,7,8,9-tetrahydro-1H-pyrrolo[2,3-f]isoquinolin-2-yl)-7-fluoro-1-methyl-1H-benzo[d]imidazol-5-yl)methanone]: the concentration for half-maximal inhibition (IC50) under setting [1] lay in the range of 100 to 500 nM.

For the molecule `COc1cc(C(=O)N2CCC[C@@H](N)C2)cc2nc(-c3cc4cccc5c4n3CCC(=O)N5)n(C)c12` [Example 8, (R)-6-(5-(3-aminopiperidine-1-carbonyl)-7-methoxy-1-methyl-1H-benzo[d]imidazol-2-yl)-3,4-dihydro-[1,4]diazepino[3,2,1-hi]indol-2(1H)-one], under setting [1], the IC50 was more than 5000 nM. On the same count and under the same terms, to `COc1cc(C(=O)N2CCC[C@@H](N)C2)cc2nc(-c3cc4cccc5c4n3CCN5CCCNC(=O)NC3CC3)n(C)c12` [Example 5, (R)-1-(3-(5-(5-(3-aminopiperidine-1-carbonyl)-7-methoxy-1-methyl-1H-benzo[d]imidazol-2-yl)-2,3-dihydro-1H-pyrrolo[1,2,3-de]quinoxalin-1-yl)propyl)-3-cyclopropylurea] belongs 500 to 5000 nM; to `CCC1CN(CCCO)c2cccc3cc(-c4nc5cc(C(=O)N6C[C@H]7CC[C@@H]6[C@@H]7N)cc(F)c5n4CC4CC4)n1c23` (stereo partly drawn) [Example 77, ((1R,4R,7R)-7-amino-2-azabicyclo[2.2.1]heptan-2-yl)(1-(cyclopropylmethyl)-2-(3-ethyl-1-(3-hydroxypropyl)-2,3-dihydro-1H-pyrrolo[1,2,3-de]quinoxalin-5-yl)-7-fluoro-1H-benzo[d]imidazol-5-yl)methanone], 100 to 500 nM. Consider `Cn1c(-c2cc3ccc4c(c3n2CC2CC2)CCCN4)nc2cc(C(=O)N3C[C@H]4CC[C@@H]3[C@@H]4N)cc(F)c21` [Example 163, ((1R,4R,7R)-7-amino-2-azabicyclo[2.2.1]heptan-2-yl)(2-(1-(cyclopropylmethyl)-6,7,8,9-tetrahydro-1H-pyrrolo[2,3-f]quinolin-2-yl)-7-fluoro-1-methyl-1H-benzo[d]imidazol-5-yl)methanone], for which the IC50 under setting [1] is 100 to 500 nM.

Consider `COc1cc(C(=O)N2CCC[C@@H](N)C2)cc2nc(-c3cc4cccc5c4n3CCN5C3CC(N)C3)n(C)c12` (stereo partly drawn) [Example 32, (R)-(2-(1-(3-aminocyclobutyl)-2,3-dihydro-1H-pyrrolo[1,2,3-de]quinoxalin-5-yl)-7-methoxy-1-methyl-1H-benzo[d]imidazol-5-yl)(3-aminopiperidin-1-yl)methanone], for which the half-inhibitory concentration (IC50) under setting [1] lay in the range of 500 to 5000 nM. `Cn1c(-c2cc3ccn4ccnc4c3n2CC2CC2)nc2cc(C(=O)N3C[C@H]4CC[C@@H]3[C@@H]4N)cc(F)c21` [Example 150, ((1R,4R,7R)-7-amino-2-azabicyclo[2.2.1]heptan-2-yl)(2-(9-(cyclopropylmethyl)-9H-imidazo[1,2-a]pyrrolo[2,3-c]pyridin-8-yl)-7-fluoro-1-methyl-1H-benzo[d]imidazol-5-yl)methanone]: the IC50 under setting [1] lay in the range of 100 to 500 nM. The same measure, in the same setting: the same measure for `COc1cc(C(=O)N2C[C@@H](N)C3(CC3)C2)cc2nc(-c3cc4cccc5c4n3CCN5CCCO)n(CC3CC3)c12` [Example 61, (S)-(7-amino-5-azaspiro[2.4]heptan-5-yl)(1-(cyclopropylmethyl)-2-(1-(3-hydroxypropyl)-2,3-dihydro-1H-pyrrolo[1,2,3-de]quinoxalin-5-yl)-7-methoxy-1H-benzo[d]imidazol-5-yl)methanone]: more than 5000 nM.
